Values of other authors in patent US5986061A (priority 1995, dated 1999).

T1: Hu-IFN-α/β receptor on bovine MDBK cells (Bos taurus, UniProt Q04790+Q95141)
T1 construct: endogenous in cells; host or cells: MDBK
T1 sequence (Q04790 25-560): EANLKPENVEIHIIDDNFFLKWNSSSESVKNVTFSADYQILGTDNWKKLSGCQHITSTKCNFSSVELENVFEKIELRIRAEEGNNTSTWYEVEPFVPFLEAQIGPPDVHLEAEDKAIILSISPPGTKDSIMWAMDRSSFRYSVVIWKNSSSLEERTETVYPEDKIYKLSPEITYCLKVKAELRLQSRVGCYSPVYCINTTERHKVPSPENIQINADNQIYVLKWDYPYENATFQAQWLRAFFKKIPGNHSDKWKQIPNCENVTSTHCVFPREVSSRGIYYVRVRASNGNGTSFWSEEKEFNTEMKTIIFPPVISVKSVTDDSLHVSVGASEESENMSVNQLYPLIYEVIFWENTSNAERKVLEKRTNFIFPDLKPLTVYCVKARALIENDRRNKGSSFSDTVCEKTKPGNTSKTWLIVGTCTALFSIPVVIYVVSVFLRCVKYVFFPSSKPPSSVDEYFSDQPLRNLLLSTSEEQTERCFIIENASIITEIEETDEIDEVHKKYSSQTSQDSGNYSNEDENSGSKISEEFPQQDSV
T1 sequence (Q95141 27-530): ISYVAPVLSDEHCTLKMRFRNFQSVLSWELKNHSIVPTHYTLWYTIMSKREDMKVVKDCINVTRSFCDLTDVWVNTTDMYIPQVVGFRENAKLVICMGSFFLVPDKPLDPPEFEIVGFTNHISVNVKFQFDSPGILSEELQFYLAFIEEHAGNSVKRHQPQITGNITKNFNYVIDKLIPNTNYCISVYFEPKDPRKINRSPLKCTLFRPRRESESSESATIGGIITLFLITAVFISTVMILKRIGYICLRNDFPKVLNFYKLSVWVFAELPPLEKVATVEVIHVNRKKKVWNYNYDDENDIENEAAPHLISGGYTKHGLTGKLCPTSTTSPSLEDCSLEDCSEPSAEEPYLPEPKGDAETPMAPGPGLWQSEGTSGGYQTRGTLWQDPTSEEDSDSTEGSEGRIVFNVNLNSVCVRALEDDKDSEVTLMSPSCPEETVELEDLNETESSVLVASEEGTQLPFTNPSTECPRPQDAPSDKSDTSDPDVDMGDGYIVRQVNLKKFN

B1: Hu-IFN-gamma: human immune (gamma) interferon (protein, UniProt P01579 24-161, looked up)
Interferon gamma: QDPYVKEAENLKKYFNAGHSDVADNGTLFLGILKNWKEESDRKIMQSQIVSFYFKLFKNFKDDQSIQKSVETIKEDMNVKFFNSNKKKRDDFEKLTNYSVTDLNVQRKAIHELIQVMAELSPAAKTGKRKRSQMLFRG

Tests used:
[1] = tested on: vesicular stomatitis virus and bovine MDBK cells; details: literature (16, 28, 63); cited from earlier work
[2] = target: T1, Hu-IFN-α/β receptor on bovine MDBK cells; details: literature (16, 28, 63); cited from earlier work

| Molecule | antiviral activity on MDBK cell line [1] | binding to MDBK cell line [2] |
| --- | --- | --- |
| Hu-IFN-gamma: human immune (gamma) interferon | does not | – |
| B1 | – | does not |
